# Read-outs that look alike come from different tables or passages of the source.
# Key:
# [1] = system: pyramidal neurons throughout the CA1 layer of the anterior hippocampus; assay: Global Brain Ischemia In Gerbils; assay type: in vivo, mongolian gerbils; settings: Meriones unguiculatus, Pyramidal neuron, ip, 336 h, read-out: PERCENT PROTECTION
# Description: Male mongolian gerbils, aged 2.5-5 months, housed 4-8 in a cage, were supplied freely with food and water and maintained at 24° C. with a 12 hour day/night cycle.
# For surgery the animals were anesthetized with halothane (1.5% in 100% O2) and the common carotid arteries exposed bilaterally through a midline ventral neck incision. Each artery was clamped for 5 minutes with aneurysm clips to produce global brain ischemia. The anesthesia was discontinued upon clamping. After 5 minutes the clamps were removed and the wound closed with skin clips.
# For treatment, the test compound or vehicle was injected intra-peritoneally(ip) in a volume of 50 microlitres of solvent per 10 g body weight. The first injection was given two minutes after clamp removal, and thereafter daily for the next 2 post-operative days (total of 3 injections).
# Seven groups each of 4-8 animals were compared:
# I. Control; (sham- or unoperated and saline treated),
# II. Vehicle treated, unoperated (when solvent is other than saline),
# III. Ischemia--untreated or saline treated),
# IV. Ischemia--vehicle treated (when solvent is other than saline),
# V. Ischemia--Test compound treated, one sub-group per concentration tested,
# VI. Ischemia and pentobarbital (40 mg/kg) as positive control).
# Analysis of neuronal damage was performed 14 days post-ischemia by counting pyramidal neurons throughout the CA1 layer of the anterior hippocampus in […] thick (paraffin) coronal brain sections stained with hematoxylin and erosin.
# Percent Protection values represent the fraction of hippocampi protected from ischemia in a group of animals treated with the stated dose of compound.
# [2] = system: Cultures of Dissociated Neonatal Rat Cerebellum; assay: Reversal of NMDA Induced Cell Death in cultures of dissociated neonatal rat cerebellum; assay type: cell-based; settings: for PERCENT PROTECTION: cell survival minus the NMDA effect (30%); for viability at 0.005 µM: 0.005 μM + NMDA (1 mM, 3 hours); for viability at 0.01 µM: 0.010 μM + NMDA (1 mM, 3 hours); for viability at 0.1 µM: 0.100 μM + NMDA (1 mM, 3 hours); for viability at 1 µM: 1.000 μM + NMDA (1 mM, 3 hours)
# Description: (§1) The cerebellum was aseptically dissociated from 6 or 7-day old rat pups and placed in a 15 ml sterile plastic conical tube containing 3 ml of Dulbecco's modified Eagle's medium (DMEM) with a high glucose concentration ([…]) and 2 mM (v/v) L-glutamine and an antibiotic antimitotic mixture. The cerebella were then dissociated after 20-25 passages through a sterile 13 gauge, 10 cm long stainless steel needle attached to a 5 ml syringe with an inserted 45 micrometer pore nylon sieve. The dissociated cells were centrifuged at 200 g for 5 minutes.
# Cells were plated at a density of 200/mm^2 on poly-L-lysine coated surfaces. […] The plated cells were covered with enriched medium and incubated at 37° C. in an atmosphere of 5% CO2 in air and 97% humidity. […] Each test compound was tested in duplicate. Toxic-dose response was determined for each compound over a range from 0.005-1000 micromole. Four groups were run in each set of experiments;
# I. Control, consisting of enriched media alone,
# II. N-methyl-D-aspartate (NMDA, 1 mM for 3 hours) as the cytotoxic challenge,
# III. Test compound plus NMDA, and
# IV. Positive control, spermine, spermidine or putrescine (0.01 micromoles) plus NMDA.
# Surviving cells in Culture are measured relative to control (100%) as described above. Percent protection is the Cell Survival for the test compound minus the NMDA effect. […] The Effective Protection was calculated as the percent of the Percent Protection (X) divided by the maximal protection value (e.g. X×100/70).
# in vitro = settings: rat, cerebellum cell culture
# Description: as §1, with “minutes. […] Cell viability was determined by the tryptan blue exclusion test.” for “minutes.”
# Cells were plated at a density of 200/mm^2 on poly-L-lysine coated surfaces. Poly-L-lysine coated glass coverslips were prepared at least one hour in advance of plating by immersing sterile coverslips in sterile distilled water solution containing 15 microgram/ml poly-L-lysine, and washing in sterile water just prior. to use. […] After three days in culture, the media was replaced with media containing the desired test compound. Each test compound was tested in duplicate. Toxic-dose response was determined for each compound over a range from 0.005-1000 micromole. Four groups were run in each set of experiments;
# Nerve cell survival was evaluated by phase contrast microscopy and tryptan blue staining after 24 hours.
# Toxic dose-response curves were compiled using the protocol described above.
# [3] = Rattus norvegicus, 24 hours, read-out: SURVIVING CELL IN CULTURE (relative to control, 100%)
# [4] = 1.0 mg/kg ip, 3 daily injections, 14 days post-ischemia, fraction of hippocampi protected
# [5] = 10.0 mg/kg ip, 3 daily injections, 14 days post-ischemia, fraction of hippocampi protected
Structure (SMILES),responders at 1 mg/kg [1] [%],PERCENT PROTECTION ([2]; 0.005 μM + NMDA) [%],PERCENT PROTECTION ([2]; 0.010 μM + NMDA) [%],"viability at 0.005 µM [2, 3] [%]","viability at 0.01 µM [2, 3] [%]",CC50 at 24 h (in vitro) [nM],responders at 0.1 mg/kg [1] [%],responders at 10 mg/kg [1] [%],"responders at 1 mg/kg [1, 4] [%]","responders at 10 mg/kg [1, 5] [%]",PERCENT PROTECTION ([2]; 0.100 μM + NMDA) [%],"viability at 0.1 µM [2, 3] [%]",PERCENT PROTECTION ([2]; 1.000 μM + NMDA) [%],"viability at 1 µM [2, 3] [%]",PERCENT PROTECTION ([2]; 10.00 μM + NMDA) [%],"viability at 10 µM ([2]; Rattus norvegicus, 10.00 μM + NMDA (1 mM, 3 hours), 24 hours, read-out: SURVIVING CELL IN CULTURE (relative to control, 100%)) [%]",responders at 40 mg/kg [1] [%]
"NCCCCN(CCCCN)C1CCCc2ccccc21 (stereo not drawn) [Compound 2728, N,N-di(4-amino-n-butyl)-1-amino-1,2,3,4-tetrahydronaphthalene]",20,-10,56,20,86,250,–,–,–,–,–,–,–,–,–,–,–
"N[C@H]1CCc2ccccc21 [(S)-1-aminoindan, reference compound]",50,–,–,–,–,–,0,75,–,–,–,–,–,–,–,–,–
NCCCNCCCCNCCCNC1CCc2ccccc21 (stereo not drawn) [Compound 2721],–,-2,-4,28,26,1000,–,–,12,67,–,–,–,–,–,–,–
NCCCNCCCCNC1CCc2ccccc21 (stereo not drawn) [Compound 2724],–,65,57,95,87,4000,–,–,12,56,–,–,–,–,–,–,–
NCCCCNCCCNCCCCNC1CCc2ccccc21 (stereo not drawn) [Compound 2725],–,42,8,72,38,20000,–,–,0,25,2,32,–,–,–,–,–
"NCCCCN(CCCCN)C1CCc2ccccc21 (racemic) [Compound 2711, racemic N,N-di(4-amino-n-butyl)-1-aminoindan]",50,44,38,74,68,60000,–,–,–,86,32,62,–,–,–,–,–
"NCCCCN(CCCCN)[C@@H]1CCc2ccccc21 [Compound 2726, (R)-N,N-di(4-amino-n-butyl)-1-aminoindan]",–,99,25,129,55,1700,–,–,–,50,–,–,–,–,–,–,–
"N[C@@H]1C[C@H](N)c2ccccc21 [Compound 2715, cis 1,3-diaminoindan]",75,19,–,49,–,10000,–,–,–,50,12,42,2,32,–,–,–
"N[C@@H]1C[C@@H](N)c2ccccc21 (relative stereo) [Compound 2716, trans 1,3-diaminoindan]",–,35,0,65,30,700,–,–,50,0,-5,25,0,30,–,–,–
"NCCCNC1CCc2ccccc21 (stereo not drawn) [Compound 2709, N-(3-aminopropyl)-1-aminoindan]",–,-4,23,26,53,50000,–,–,12,31,29,59,13,43,8,38,–
"NCCCCN(CCCCN)[C@H]1CCc2ccccc21 [Compound 2727, (S)-N,N-di(4-amino-n-butyl)-1-aminoindan]",–,0,25,30,55,400,–,–,–,28.5,–,–,–,–,–,–,–
NCCCCNCCCNC1CCc2ccccc21 (stereo not drawn) [Compound 2720],–,42,8,72,38,200,–,–,–,58,2,32,–,–,–,–,–
"CCCC(C)C1(CC)C(=O)NC(=O)NC1=O (stereo not drawn) [Pentobarbital, pentobarbital, reference compound]",–,–,–,–,–,–,–,–,–,–,–,–,–,–,–,–,87.5
"N[C@@H]1CCc2ccccc21 [(R)-1-aminoindan, reference compound]",25,50,0,–,–,175000,25,25,–,–,-2,–,–,–,–,–,–

# Source: US5646188A, “Polyamine derivatives of 1-aminoindan” (priority 1995, dated 1997)
